The supplement of paper PMC3621838
± gives the standard deviation of the averaged measurements.

System: HEK293 NF-kB-luciferase reporter cells
Assay: NF-kB luciferase reporter activity, robust Z-score vs plate median (robust Z-score (log luminescence)); higher = stronger NF-kB reporter activation
Conditions: TNF treatment time 8.5 h, transfection time 72 h
Protocol: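 Primary screen of an Ambion Pre-miR miRNA mimic library (miRBase v8.0, 1.6 pmol/well, 384-well, duplicate) reverse-transfected into HEK293 cells stably expressing a 5x NF-kB firefly luciferase reporter. After 72 h the cells were treated with vehicle or TNF (40 ng/mL) for 8.5 h and luminescence was read (BriteLite). Raw luminescence was log-transformed and converted to a robust Z-score per plate: (x - plate median)/plate MAD. Sequence given is the mature miRNA strand of the double-stranded mimic.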

| Sequence | NF-kB luciferase reporter activity (TNF 0 ng/mL) | NF-kB luciferase reporter activity (TNF 40 ng/mL) |
| --- | --- | --- |
| UAGGCAGUGUCAUUAGCUGAUUG | 2.71 ± 0.93 | -1.42 ± 0.053 |
| UAGGUAGUUUCCUGUUGUUGG | -1.2 ± 0.5 | -0.972 ± 0.18 |
| UAUACAAGGGCAAGCUCUCUGU | -1.38 ± 0.64 | -1.11 ± 0.035 |
| UAUGGCUUUUCAUUCCUAUGUG | -0.314 ± 0.58 | -0.369 ± 0.0092 |
| UAUGUAAUAUGGUCCACAUCUU | -1.06 ± 0.48 | -1.342 ± 0.0044 |
| UAUGUGCCUUUGGACUACAUCG | -0.472 ± 0.26 | -1.23 ± 0.037 |
| UAUGUGGGAUGGUAAACCGCUU | 0.166 ± 0.72 | -1.21 ± 0.026 |
| UCAAGAGCAAUAACGAAAAAUGU | 0.225 ± 0.32 | 1.08 ± 0.015 |
| UCACAGUGAACCGGUCUCUUUC | -1.06 ± 0.48 | 0.0486 ± 0.083 |
| UCACUCCUCUCCUCCCGUCUUCU | 2.53 ± 0.2 | 1.87 ± 0.1 |
| UCAGGCUCAGUCCCCUCCCGAU | -0.315 ± 0.14 | -0.227 ± 0.1 |
| UCAGUCUCAUCUGCAAAGAAG | 2.97 ± 0.59 | 1.58 ± 0.083 |
| UCAGUGCAUCACAGAACUUUGU | 0.225 ± 0.32 | 0.0758 ± 0.04 |
| UCAGUGCAUGACAGAACUUGGG | -0.378 ± 0.05 | 0.0929 ± 0.021 |
| UCCAGCAUCAGUGAUUUUGUUGA | 0.425 ± 0.23 | 0.858 ± 0.14 |
| UCCAGCUCCUAUAUGAUGCCUUU | 3.61 ± 0.75 | -0.188 ± 0.11 |
| UCCCUGAGACCCUUUAACCUGUG | 0.417 ± 0.12 | 1.32 ± 0.15 |
| UCCCUGUCCUCCAGGAGCUCA | 0.322 ± 0.46 | 0.69 ± 0.39 |
| UCCGUCUCAGUUACUUUAUAGCC | 0.757 ± 0.51 | 0.334 ± 0.055 |
| UCCUGUACUGAGCUGCCCCGAG | 0.874 ± 0.074 | 1.15 ± 0.17 |

| Sequence | NF-kB luciferase reporter activity (TNF 0 ng/mL) | NF-kB luciferase reporter activity (TNF 40 ng/mL) |
| --- | --- | --- |
| UCGGGGAUCAUCAUGUCACGAG | 1.13 ± 0.071 | 0.339 ± 0.01 |
| UCGUGCAUCCCUUUAGAGUGUU | 1.73 ± 0.3 | 1.07 ± 0.079 |
| UCUACAAAGGGAAGCCCUUUCUG | -0.631 ± 0.31 | 0.879 ± 0.11 |
| UCUACAGUGCACGUGUCU | -1.16 ± 0.34 | -0.417 ± 0.031 |
| UCUCACACAGAAAUCGCACCCGUC | 0.103 ± 1.2 | 0.598 ± 0.025 |
| UCUCCCAACCCUUGUACCAGUG | 0.0398 ± 0.056 | 1.18 ± 0.046 |
| UCUCUGGAGGGAAGCACUUUCUG | -0.463 ± 0.65 | -0.521 ± 0.11 |
| UCUGCAAAGGGAAGCCCUUU | 0.625 ± 1.3 | 0.788 ± 0.045 |
| UCUGGCUCCGUGUCUUCACUCC | 0.957 ± 0.014 | -1.34 ± 0.046 |
| UCUUGGAGUAGGUCAUUGGGUGG | 1.37 ± 0.57 | 0.913 ± 0.027 |
| UGAAACAUACACGGGAAACCUCUU | 0.49 ± 0.56 | -0.403 ± 0.11 |
| UGAAGGUCUACUGUGUGCCAG | -0.779 ± 1.1 | -1.55 ± 0.32 |
| UGAGAACUGAAUUCCAUAGGCU | -1.29 ± 0.15 | 0.439 ± 0.12 |
| UGAGGUAGGAGGUUGUAUAGU | -0.314 ± 0.58 | -0.881 ± 0.37 |
| UGAUUGGUACGUCUGUGGGUAGA | -0.152 ± 0.091 | -0.9703 ± 0.0044 |
| UGAUUGUAGCCUUUUGGAGUAGA | -1.51 ± 0.46 | -0.927 ± 0.034 |
| UGCUGACUCCUAGUCCAGGGC | -1.7 ± 0.2 | -3.27 ± 0.18 |
| UGCUUCCUUUCAGAGGGU | 1.34 ± 0.039 | 0.941 ± 0.075 |
| UGGAGAGAAAGGCAGUUC | 0.465 ± 0.4 | 0.268 ± 0.031 |
| UGGUAGACUAUGGAACGUA | 0.274 ± 0.8 | 0.0556 ± 0.21 |

| Sequence | NF-kB luciferase reporter activity (TNF 0 ng/mL) | NF-kB luciferase reporter activity (TNF 40 ng/mL) |
| --- | --- | --- |
| UGGUUGACCAUAGAACAUGCGC | -0.133 ± 0.5 | -2.27 ± 0.2 |
| UGGUUUACCGUCCCACAUACAU | -0.822 ± 0.38 | 0.367 ± 0.064 |
| UGUCUGCCCGCAUGCCUGCCUCU | 1.07 ± 0.88 | 0.822 ± 0.046 |
| UGUCUUGCAGGCCGUCAUGCA | 1.79 ± 0.31 | -0.465 ± 0.12 |
| UGUGACAGAUUGAUAACUGAAA | -0.287 ± 0.28 | -2.016 ± 0.016 |
| UGUUUGCAGAGGAAACUGAGAC | 1.44 ± 0.076 | -1.26 ± 0.051 |
| UUAAGACUUGCAGUGAUGUUUAA | -0.92 ± 0.38 | 0.155 ± 0.07 |
| UUAUAAUACAACCUGAUAAGUG | -0.295 ± 1.1 | -0.534 ± 0.029 |
| UUAUCAGAAUCUCCAGGGGUAC | -0.469 ± 0.36 | -0.796 ± 0.17 |
| UUCAAGUAAUUCAGGAUAGGUU | 0.218 ± 0.18 | 0.0275 ± 0.0019 |
| UUCACAGGGAGGUGUCAUUUAU | 0.436 ± 0.13 | 0.0761 ± 0.082 |
| UUCACAGUGGCUAAGUUCCGC | 0.203 ± 0.55 | 0.955 ± 0.096 |
| UUCCCUUUGUCAUCCUUCGCCU | 0.84 ± 0.23 | 0.327 ± 0.09 |
| UUCUCCAAAAGAAAGCACUUUCUG | -0.171 ± 0.24 | -1.816 ± 0.017 |
| UUCUCCAAAAGGGAGCACUUUC | 1.07 ± 0.25 | -1.42 ± 0.11 |
| UUGUACAUGGUAGGCUUUCAUU | 0.596 ± 0.28 | 0.433 ± 0.025 |
| UUUAACAUGGGGGUACCUGCUG | -0.207 ± 0.29 | 0.504 ± 0.055 |
| UUUCAAGCCAGGGGGCGUUUUUC | 0.765 ± 0.45 | 0.885 ± 0.064 |
| UUUGUUCGUUCGGCUCGCGUGA | -0.464 ± 1 | -3.19 ± 0.074 |
| UUUUGCACCUUUUGGAGUGAA | 1.1 ± 0.92 | -0.163 ± 0.01 |
